Data from patent US4323567A, “Arylmalonamido-1-oxadethiacephalosporins” (priority 1976, dated 1982).

Legend:
Assay in all cases: Minimal inhibitory concentration, nutrient agar plate
Escherichia coli H = format: cell-based; details: as sodium salt, inoculum size 10^8, pH 7.0, read-out: Minimal inhibitory concentration
E. coli JC-2 = format: cell-based; details: Escherichia coli, JC2; as sodium salt, inoculum size 10^8, pH 7.0; read-out: Minimal inhibitory concentration
E. coli 377 = format: cell-based, Escherichia coli; details: Escherichia coli, 377; as sodium salt, inoculum size 10^8, pH 7.0; read-out: Minimal inhibitory concentration
E. coli 73 = format: cell-based, Escherichia coli; details: Escherichia coli, 73; as sodium salt, inoculum size 10^8, pH 7.0; read-out: Minimal inhibitory concentration
[1] = system: Serratia marsescens 13880; format: cell-based; details: Serratia, 13880; as sodium salt, inoculum size 10^8, pH 7.0; read-out: Minimal inhibitory concentration
Klebsiella pneumoniae = format: cell-based; details: as sodium salt, inoculum size 10^8, pH 7.0, read-out: Minimal inhibitory concentration
Klebsiella sp. 363 = format: cell-based; details: SP.363, as sodium salt, inoculum size 10^8, pH 7.0, read-out: Minimal inhibitory concentration
Enterobacter cloacae 233 = format: cell-based; details: Enterobacter cloacae, 233; as sodium salt, inoculum size 10^8, pH 7.0; read-out: Minimal inhibitory concentration
Proteus mirabilis PR-4 = format: cell-based; details: PR4, as sodium salt, inoculum size 10^8, pH 7.0, read-out: Minimal inhibitory concentration
P. morganii No. 9 = format: cell-based, Proteus morganii; details: Morganella morganii, NO.9; as sodium salt, inoculum size 10^8, pH 7.0; read-out: Minimal inhibitory concentration
P. vulgaris CN-329 = format: cell-based; details: Proteus vulgaris, CN329; as sodium salt, inoculum size 10^8, pH 7.0; read-out: Minimal inhibitory concentration
[2] = system: Pseudomonas aeruginosa Denken; format: cell-based; details: as sodium salt, inoculum size 10^8, pH 7.0, read-out: Minimal inhibitory concentration
Ps. aeruginosa 25619 = format: cell-based, Pseudomonas aeruginosa; details: Pseudomonas aeruginosa, 25619; as sodium salt, inoculum size 10^8, pH 7.0; read-out: Minimal inhibitory concentration
Ps. aeruginosa 24 = format: cell-based, Pseudomonas aeruginosa; details: Pseudomonas aeruginosa, 24; as sodium salt, inoculum size 10^8, pH 7.0; read-out: Minimal inhibitory concentration

Row | SMILES | MIC (Escherichia coli H) [mg/L] | MIC (E. coli JC-2) [mg/L] | MIC (E. coli 377) [mg/L] | MIC (E. coli 73) [mg/L] | MIC [1] [mg/L] | MIC (Klebsiella pneumoniae) [mg/L] | MIC (Klebsiella sp. 363) [mg/L] | MIC (Enterobacter cloacae 233) [mg/L] | MIC (Proteus mirabilis PR-4) [mg/L] | MIC (P. morganii No. 9) [mg/L] | MIC (P. vulgaris CN-329) [mg/L] | MIC [2] [mg/L] | MIC (Ps. aeruginosa 25619) [mg/L] | MIC (Ps. aeruginosa 24) [mg/L]
1 | Cn1nnnc1SCC1=C(C(=O)O)N2C(=O)[C@@H](NC(=O)C(C(=O)O)c3cccs3)[C@H]2OC1 (stereo partly drawn) [Example III-8, 7β-[α-(2-thienyl)-α-carboxyacetamido]-3-(1-methyltetrazol-5-yl)thiomethyl-1-oxadethia-3-cephem-4-carboxylic acid] | 0.1 | 0.1 | 0.2 | > 100 | 0.78 | 0.1 | > 100 | 0.2 | 0.2 | 0.39 | 50 | > 100 | 3.13 | > 100
2 | Cn1nnnc1SCC1=C(C(=O)O)N2C(=O)[C@@H](NC(=O)C(O)c3ccccc3)[C@H]2OC1 (stereo partly drawn) [(4), 7β-mandelamido3-(1-methyltetrazol-5-yl)thiomethyl-1-oxadethia-3-cephm-4-carboxylic acid, reference compound] | 0.1 | 0.2 | 50 | > 100 | 100 | 0.2 | > 100 | > 100 | 0.2 | 100 | > 100 | > 100 | > 100 | > 100
3 | Cn1nnnc1SCC1=C(C(=O)O)N2C(=O)[C@@H](NC(=O)C(C(=O)O)c3ccsc3)[C@H]2OC1 (stereo partly drawn) [Example III-9, 7β-[α-(3-thienyl)-α-carboxyacetamido]-3-(1-methyltetrazol-5-yl)thiomethyl-1-oxadethia-3-cephem-4-carboxylic acid] | 0.1 | 0.1 | 0.2 | > 100 | 0.78 | 0.2 | > 100 | 0.39 | 0.39 | 0.39 | 100 | > 100 | 6.25 | 
4 | CO[C@@]1(NC(=O)C(C(=O)O)c2cccs2)C(=O)N2C(C(=O)O)=C(CSc3nnnn3C)CO[C@@H]21 (stereo partly drawn) [III-23, 7β-[α-carboxy-α-(2-theinyl)acetamido]-7α-methoxy-3-(1-methyltetrazol-5-yl)thiomethyl-1-oxadethia-3-cephem-4-carboxylic acid] | 0.025 | 0.05 | 0.39 | 0.2 | 0.39 | 0.05 | 0.1 | 0.2 | 0.1 | 0.1 | 0.1 | 100 | 12.5 | 50
5 | Cc1nnc(SCC2=C(C(=O)O)N3C(=O)[C@@H](NC(=O)C(C(=O)O)c4ccccc4)[C@H]3OC2)s1 (stereo partly drawn) [Example III-12, 7β-(α-phenyl-α-carboxyacetamido)-3-(2-methyl-1,3,4-thiadiazol-5-yl)thiomethyl-1-oxadethia-3-cephem-4-carboxylic acid] | 0.2 | 0.39 | 0.78 | > 100 | 1.56 | 0.78 | > 100 | 1.56 | 0.39 | 0.39 | 100 | > 100 | 3.13 | > 100
